Values quoted from earlier work, collected in patent publication US8993551B2, “Composition for the regulation of the human immune system and the prevention and treatment of diseases thereof” (priority 2002, dated 2015).
Read-outs that look alike come from different tables or passages of the source.

Columns and labels:
[1] = of total dietary amount consumed / of intake, mammals
[2] = tested on: human breast cancer cells
[3] = tested on: LNCaP human prostate cancer cells
[4] = tested on: HT-29 human colon cancer cells
CD4 lymphocyte count = settings: AIDS patients

Compound	intestinal absorption [1]	inhibition of breast cancer cell growth ([2]; after 3 days)	inhibition of breast cancer cell growth ([2]; after 5 days)	increase in rate of cell death ([2]; breast cancer cells)	inhibition of prostate cancer cell growth [3]	increase in cell death ([3]; prostate cancer cells)	reduction in cell growth [4]	CD4 lymphocyte count (CD4 lymphocyte count)
CC(C)CCC[C@@H](C)[C@H]1CC[C@H]2[C@@H]3CC=C4C[C@@H](O)CC[C@]4(C)[C@H]3CC[C@]12C [cholesterol]	45-54%							
CC[C@H](CC[C@@H](C)[C@H]1CC[C@H]2[C@@H]3CC=C4C[C@@H](O)CC[C@]4(C)[C@H]3CC[C@]12C)C(C)C [beta-sitosterol]	~5%	66%	80%	600%	24%	400%	55%	maintain CD4 lymphocyte count
